Measured values: ChEMBL document CHEMBL1201862, “PubChem BioAssay data set” (2004)
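Growth conditions: 96-well plates. Treatment: test compound, 48 hours, 5 concentrations. Analysis: linear interpolation between bracketing concentrations; unreached endpoints set to highest concentration. Abbreviation: GI50, concentration required for 50% inhibition of growth.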 Calls of active or inactive are those of the source. No stated cut-off is given here; in the data, active = GI50 up to about 1.1 µM and inactive = higher.

Key:
Test in all cases: inhibition of tumour cell growth, NCI panel, 48 h
DMS-114 = tested on: DMS-114
DMS-273 = tested on: DMS-273
HOP-18 = tested on: HOP-18
KM-20L2 = tested on: KM-20L2
LXFL 529 = tested on: LXFL 529
M19-MEL = tested on: M19-MEL
SNB-78 = tested on: SNB-78
XF498 = tested on: XF498
RXF 631 = tested on: RXF 631

Compound	GI50 (DMS-114)	GI50 (DMS-273)	GI50 (HOP-18)	GI50 (KM-20L2)	GI50 (LXFL 529)	GI50 (M19-MEL)	GI50 (SNB-78)	GI50 (XF498)	GI50 (RXF 631)
Cc1ccc(NCCN(C)C)c2c(=O)c3cc(O)ccc3sc12	11.7 µM (inactive)	1.05 µM (active)	3.64 µM (inactive)	8.87 µM (inactive)	8.18 µM (inactive)	10.4 µM (inactive)	15.6 µM (inactive)	4.12 µM (inactive)	
COc1ccc(CC2NCCc3cc(OC)c(OC)cc32)cc1Br (centres undefined)	17.6 µM (inactive)	22.4 µM (inactive)	23.1 µM (inactive)	25.8 µM (inactive)	26.9 µM (inactive)	20.7 µM (inactive)	42.4 µM (inactive)	11.9 µM (inactive)	
O=CC(O)C(O)C(O)COc1cc(CO)cc2c1C(=O)c1ccccc1C2=O (centres undefined)	> 89.5 µM (inactive)	> 100 µM (inactive)	> 100 µM (inactive)	> 100 µM (inactive)	> 100 µM (inactive)	37.6 µM (inactive)	> 100 µM (inactive)	> 100 µM (inactive)	> 100 µM (inactive)
Cc1noc(C)c1C1=CCCCc2ccccc21	> 100 µM (inactive)	> 100 µM (inactive)	> 100 µM (inactive)	> 100 µM (inactive)	85.5 µM (inactive)	90.2 µM (inactive)	> 100 µM (inactive)		
CCOC(=O)C1Oc2ccc([N+](=O)[O-])cc2C1(C)O (centres undefined)	> 100 µM (inactive)	> 100 µM (inactive)			> 100 µM (inactive)	> 100 µM (inactive)	> 100 µM (inactive)	> 100 µM (inactive)	
CC(=O)c1cccc(NC(=O)C(=O)NNc2nnc(S)n2N)c1	1.85 µM (inactive)	5.55 µM (inactive)	11.8 µM (inactive)	14.1 µM (inactive)	10.7 µM (inactive)	0.805 µM (active)	11.3 µM (inactive)	12.7 µM (inactive)	3.01 µM (inactive)
CN(C)C(=N)NC(N)=S	> 100 µM (inactive)	> 100 µM (inactive)	> 100 µM (inactive)	> 100 µM (inactive)	> 100 µM (inactive)	> 100 µM (inactive)	> 100 µM (inactive)	> 100 µM (inactive)	> 100 µM (inactive)
COc1cc2c(c(OC)c1OC)-c1ccc(SC)c(=O)cc1C(CO)C2 (centres undefined)	0.0791 µM (active)	0.0614 µM (active)	24.8 µM (inactive)	0.157 µM (active)	0.136 µM (active)	0.15 µM (active)	0.0966 µM (active)	0.149 µM (active)	< 0.01 µM (active)
Nc1nc(SCc2ccc([N+](=O)[O-])cc2)nc2c1ncn2C1OC(CO)C(O)C1O (centres undefined)	> 100 µM (inactive)	> 100 µM (inactive)		> 100 µM (inactive)	78.5 µM (inactive)	> 100 µM (inactive)	> 100 µM (inactive)	> 100 µM (inactive)	
Nc1nc(F)nc2c1ncn2C1OC(COP(=O)(O)O)C(O)C1O (centres undefined)	10.7 µM (inactive)	225 µM (inactive)	63.2 µM (inactive)	105 µM (inactive)		46.1 µM (inactive)	186 µM (inactive)	66.8 µM (inactive)	
O=S1(=O)c2ccccc2N=C(c2ccccc2Cl)CC1c1ccc(F)cc1 (centres undefined)	19.7 µM (inactive)	22.3 µM (inactive)	9.62 µM (inactive)	18.6 µM (inactive)	17.8 µM (inactive)	17.7 µM (inactive)	19.1 µM (inactive)	15.6 µM (inactive)	
CC(=O)OCC1OC(n2c(=S)n(-c3ccccc3)c(=O)c3cc(Br)ccc32)C(OC(C)=O)C(OC(C)=O)C1OC(C)=O (centres undefined)	> 100 µM (inactive)	> 100 µM (inactive)		> 100 µM (inactive)	> 100 µM (inactive)	> 100 µM (inactive)			> 100 µM (inactive)
O=c1[nH]c2c(nc1NC13CC4CC(CC(C4)C1)C3)c(=O)oc1ccccc12	> 100 µM (inactive)	62.1 µM (inactive)		> 100 µM (inactive)	> 100 µM (inactive)	> 100 µM (inactive)		> 100 µM (inactive)	
CCOC(OC1=C(C#N)CCC1)C(CC)[Se]c1ccccc1 (centres undefined)	3.1 µM (inactive)	11.2 µM (inactive)	27.2 µM (inactive)	26.1 µM (inactive)	16.5 µM (inactive)	13.9 µM (inactive)	29.3 µM (inactive)	24.9 µM (inactive)	
CN(C)[C@H]1CC[C@H]2[C@@H]3CCC4C[C@@H](NC(=O)NC(Cc5ccccc5)c5nccs5)CC[C@]4(C)[C@H]3CC[C@]12C (some centres undefined)	1.79 µM (inactive)	1.94 µM (inactive)		1.19 µM (inactive)	0.488 µM (active)	1.85 µM (inactive)		1.2 µM (inactive)	1.92 µM (inactive)
O=C(c1ccc(Cl)cc1)c1cnc(Nc2ccccc2Cl)s1	24.7 µM (inactive)	20.1 µM (inactive)			16.3 µM (inactive)	34.1 µM (inactive)			
CCOC(=O)C(=O)C1C(=O)Nc2ccccc21 (centres undefined)	> 100 µM (inactive)	> 100 µM (inactive)			> 100 µM (inactive)	> 100 µM (inactive)		> 100 µM (inactive)	> 100 µM (inactive)
Cc1ccc(S(=O)(=O)NNS(C)(=O)=O)cc1	> 100 µM (inactive)	> 100 µM (inactive)		> 100 µM (inactive)	> 100 µM (inactive)	> 100 µM (inactive)			
CCCCCn1cnc2c1S(=O)(=O)N(C)C(NC(=O)c1ccccc1)=N2	> 100 µM (inactive)	> 100 µM (inactive)		> 100 µM (inactive)	> 100 µM (inactive)	> 100 µM (inactive)	> 100 µM (inactive)		
COc1ccc(N2C(=O)c3c(c4[nH]c5ccccc5c4c4ccc(C(C)(C)C)cc34)C2=O)cc1	> 100 µM (inactive)	41.3 µM (inactive)	58.1 µM (inactive)	> 100 µM (inactive)	78.5 µM (inactive)	50.9 µM (inactive)	25.7 µM (inactive)	20.7 µM (inactive)	40.6 µM (inactive)
C=CCOC1=C2CC[C@H](O)[C@@]2(C)CCC1=O	> 100 µM (inactive)	> 100 µM (inactive)	> 100 µM (inactive)	> 100 µM (inactive)	> 100 µM (inactive)	> 100 µM (inactive)	> 100 µM (inactive)		
CC1=Nn2c(nnc2-c2ccccc2Cl)NC(C)(C)C1		> 100 µM (inactive)		> 100 µM (inactive)	63.7 µM (inactive)	> 100 µM (inactive)	> 100 µM (inactive)	> 100 µM (inactive)	
C/C(=N\NC(=O)c1ccccc1O)C1=CNc2ccccc2S1		3.1 µM (inactive)	6.25 µM (inactive)	15.7 µM (inactive)	0.875 µM (active)	7.53 µM (inactive)	7.94 µM (inactive)	3.99 µM (inactive)	
